The results in this text go back to EP4232018B1 (priority 2020, dated 2022).

Data set [1] concerns African swine fever virus. The format is cell-based.
In the next data set the test system is SARS-CoV-2. The format is cell-based.

Entries after “also recorded” stand apart in the source; their conditions may differ.

In the case of `Cc1ccc(C(C)C)cc1OC(=O)C[N+](C)(C)CCCCCCCCCC[N+](C)(C)CC(=O)Oc1cc(C(C)C)ccc1C.[Cl-].[Cl-]` [Compound IV, N1,N10-bis(2-(5-isopropyl-2-methylphenoxy)-2-oxoethyl)-N1,N1,N10,N10-tetramethyldecane-1,10-diaminium dichloride], in data set [1], the “inhibiting African swine fever virus” value was “effective at inhibiting African swine fever virus”; the “viral multiplication (rosetta)” value is “Cells grew well and were protected from African swine fever virus infection. No rosetta were observed; also recorded: Cells grew well, but protection against ASFV infection decreased and some rosetta became visible”. Also, the “effect on cell viability” value in the data set with A549 NSCLC cells is recorded as “does not affect cell viability”. The “inhibition of the SARS-CoV-2 reporter gene” value in the data set with SARS-CoV-2 is listed as “inhibits the SARS-CoV-2 reporter gene in a dose dependent manner”.
On to `Cc1ccc(C(C)C)c(OC(=O)C[N+](C)(C)CCCCCCCCCC[N+](C)(C)CC(=O)Oc2cc(C)ccc2C(C)C)c1.[Cl-].[Cl-]` [Compound V, N1,N10-bis(2-(2-isopropyl-5-methylphenoxy)-2-oxoethyl)-N1,N1,N10,N10-tetramethyldecane-1,10-diaminium dichloride], for which, in data set [1], the “inhibiting African swine fever virus” value is recorded as “effective at inhibiting African swine fever virus”; the “viral multiplication (rosetta)” value is “Cells grew well and were protected from African swine fever virus infection. No rosetta were observed; also recorded: Cells grew well, but protection against ASFV infection decreased and some rosetta became visible”.
